Common to all, as to assay: NCI anticancer screen, dose series, 48 h
For assay [1], the system named is A498.
The test system of assay [2] is CAKI-1.
For assay [3], the system named is EKVX.
Assay [4] concerns HT-29.
Assay [5] concerns MCF7.
Assay [6] relates to MDA-MB-231.
The subject of assay [7] is MDA-MB-435.
The subject of assay [8] is MOLT-4.
In assay [9] the test system is Malme-3M.
In assay [10] the test system is NCI-H226.
The test system of assay [11] is NCI/ADR-RES.
For assay [12], the system named is OVCAR-3.
Assay [13] deals with OVCAR-5.
For assay [14], the system named is SK-MEL-28.
In assay [15] the test system is SNB-19.
Assay [16] relates to T47D.
Assay [17] deals with UO-31.
The subject of assay [18] is HL-60.
For assay [19], the system named is LOX IMVI.
Assay [20] concerns TK-10.

The results in this text go back to ChEMBL document CHEMBL1201862, “PubChem BioAssay data set” (2004).

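Cells were grown in 96-well plates and exposed to each compound for 48 hours at five concentrations; endpoints were interpolated linearly between bracketing concentrations, or set to the highest concentration if not reached. GI50: concentration for 50% inhibition of growth.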 Calls of active or inactive are those of the source. Rule as the data show it: active = GI50 up to about 1.1 µM and inactive = higher.

For `CC(C)(C)OC/C=C(/CO)[C@@H]1C=C[C@H](O)C1`, the GI50 in assay [1], in [2], in assay [3], in assay [4], in assay [5] and in assay [6] was > 100 µM (inactive) throughout. Moreover, the GI50 in [7], in [8], in assay [9], in [10], in [11] and in [12] was > 100 µM (inactive) each time. For the same molecule, the GI50 in [13], in assay [14], in assay [15], in assay [16] and in [17] was > 100 µM (inactive) in each case.

In the case of `COC(=O)/C(=N\Nc1nnc(C)n1N)C(C#N)c1ccccc1` (configuration not stated), the GI50 in assay [2] is > 100 µM (inactive); in assay [3], > 100 µM (inactive); in assay [18], > 100 µM (inactive); in assay [4] it was > 63.1 µM (inactive); in [19] it was > 64.9 µM (inactive); in [6] it was > 100 µM (inactive). In addition, the GI50 in [7] is 17.3 µM (inactive); in assay [8], > 100 µM (inactive); in assay [9] it was 22.3 µM (inactive); in assay [10], > 100 µM (inactive); in [11], > 100 µM (inactive); in [12] it was > 100 µM (inactive). Moreover, the GI50 in [13] was > 100 µM (inactive); in [14] it was > 100 µM (inactive); in assay [15], > 100 µM (inactive); in assay [16], > 100 µM (inactive); in assay [20], > 100 µM (inactive); in [17], > 91.4 µM (inactive).

`c1ccc(/N=C2\SC(=NNc3ccccc3)S\C2=N/c2ccccc2)cc1`: the GI50 was > 100 µM (inactive) in [1]; > 100 µM (inactive) in assay [2]; > 100 µM (inactive) in [3]; > 100 µM (inactive) in assay [18]; 45.4 µM (inactive) in assay [4]; 13 µM (inactive) in [19]. For the same molecule, the GI50 in assay [6] was > 100 µM (inactive); in assay [7] it was 35.6 µM (inactive); in [8] it was > 100 µM (inactive); in assay [9], > 100 µM (inactive); in assay [10], 48.1 µM (inactive); in assay [11] it was 40.5 µM (inactive). Also, the GI50 in assay [13] was 98.2 µM (inactive); in assay [14], > 100 µM (inactive); in assay [15], 72.6 µM (inactive); in [16], 74.1 µM (inactive); in assay [20], > 100 µM (inactive); in [17] it was > 100 µM (inactive).

`CC1(N2CCOCC2)CC2C(=[N+]1[O-])CCC/C2=N/O` (configuration not stated): the GI50 in assay [2], in [3], in assay [4], in assay [19], in [5] and in assay [6] was > 100 µM (inactive) throughout. Besides, the GI50 in [7], in assay [8], in assay [9], in assay [10], in assay [11] and in assay [12] was > 100 µM (inactive) throughout. Besides, the GI50 in assay [13], in [14], in assay [15], in assay [16], in [20] and in [17] was > 100 µM (inactive) throughout.

`C[C@]12CC/C(=N\O)C=C1CC[C@@H]1[C@@H]2CC[C@]2(C)C(=N/O)/C(=C/c3ccncc3)C[C@@H]12`: the GI50 in assay [2] was 24.2 µM (inactive); in [3], 25.7 µM (inactive); in [18], 0.1 µM (active); in [4], 11.5 µM (inactive); in [19] it was 20 µM (inactive); in [5], 16.3 µM (inactive). The GI50 in [6] is 20.8 µM (inactive); in [7], 21.8 µM (inactive); in assay [8], 18.8 µM (inactive); in assay [9], 37.5 µM (inactive); in assay [10], 6.37 µM (inactive); in [11] it was 21.2 µM (inactive). The GI50 is 20 µM (inactive) in assay [12]; 42.8 µM (inactive) in assay [13]; 39.8 µM (inactive) in assay [14]; 28.8 µM (inactive) in assay [15]; 19.7 µM (inactive) in assay [16]; 36.1 µM (inactive) in assay [20]. For the same molecule, the GI50 in [17] was 3.62 µM (inactive).

On to `CCCCCCCCCCOC1C(C(O)CNCCCN(C)C)OC2OC3(CCCCC3)OC21` (configuration not stated), for which the GI50 in assay [2] was 1.75 µM (inactive); in [3], 3.71 µM (inactive); in [18] it was 1.69 µM (inactive); in [4], 1.62 µM (inactive); in [19], 1.09 µM (active); in assay [5], 2.07 µM (inactive). Besides, the GI50 in assay [6] is 1.8 µM (inactive); in assay [7] it was 2.03 µM (inactive); in assay [8] it was 1.77 µM (inactive); in assay [9], 1.99 µM (inactive); in assay [10] it was 18.5 µM (inactive); in assay [11], 3.31 µM (inactive). Further, the GI50 in [12] was 1.96 µM (inactive); in assay [13] it was 1.72 µM (inactive); in assay [14], 1.66 µM (inactive); in [15], 1.75 µM (inactive); in assay [16], 2.75 µM (inactive); in assay [20] it was 3.21 µM (inactive). Moreover, in [17], the GI50 was 2.37 µM (inactive).

As to `CC(C)CCNC(=O)c1ccc(CNC(=O)/C=C/c2ccc(-c3ccccc3[N+](=O)[O-])o2)cc1`, the GI50 in assay [2] is 46.3 µM (inactive); in assay [18] it was 11.6 µM (inactive); in [19] it was > 100 µM (inactive); in assay [5] it was 68.5 µM (inactive); in [6] it was > 100 µM (inactive); in [7], 34.9 µM (inactive). Moreover, the GI50 in [8] was > 100 µM (inactive); in assay [10] it was 21.9 µM (inactive); in assay [11], 28.2 µM (inactive); in assay [12] it was 94.8 µM (inactive); in [13], 81.8 µM (inactive); in [14], 16.6 µM (inactive). Also, the GI50 in assay [15] was 22.7 µM (inactive); in assay [16], 12.2 µM (inactive); in assay [17], 76.7 µM (inactive).

On to `Cc1cc(S(=O)(=O)Nc2nc3cc(-c4ccc(Cl)cc4)sc3c(=O)n2N)c(S)cc1Cl`, for which the GI50 in assay [2] was > 100 µM (inactive); in [3], 82.8 µM (inactive); in [4], 54.5 µM (inactive); in assay [19] it was 45.4 µM (inactive); in assay [5], 44.7 µM (inactive); in [6], 56.6 µM (inactive). For the same molecule, the GI50 in [7] is 62.2 µM (inactive); in assay [8], 21.3 µM (inactive); in [9], > 100 µM (inactive); in [11], 52.4 µM (inactive); in assay [12], > 100 µM (inactive); in [13], 44.2 µM (inactive). For the same molecule, the GI50 is 36.5 µM (inactive) in assay [14]; 80.2 µM (inactive) in assay [15]; 31.3 µM (inactive) in assay [16]; 73.6 µM (inactive) in assay [20]; 44.4 µM (inactive) in [17].

For `O=C(NNC(=S)Nc1cccc(Cl)c1)c1cc(-c2ccccc2)nc2ccccc12`, the GI50 was 19.3 µM (inactive) in assay [2]; 20.4 µM (inactive) in assay [4]; 10 µM (inactive) in [5]; 13.1 µM (inactive) in assay [6]; 16 µM (inactive) in assay [7]; 28 µM (inactive) in assay [8]. The GI50 in assay [9] was 15.4 µM (inactive); in [10] it was 20 µM (inactive); in assay [11], 20.4 µM (inactive); in assay [12], 15.1 µM (inactive); in assay [13], 15.4 µM (inactive); in assay [14] it was 12.4 µM (inactive). The GI50 in [15] was 17 µM (inactive); in assay [16], 14.9 µM (inactive); in assay [20], 15.4 µM (inactive); in assay [17], 15.1 µM (inactive).

As for `O=C1Cc2c([nH]c3ccc(Br)cc23)-c2cc(Br)ccc2N1`, the GI50 in [1], in assay [2], in [3], in [19], in assay [5] and in assay [6] was > 100 µM (inactive) in each case. For the same molecule, the GI50 was > 100 µM (inactive) in [7]; 86.3 µM (inactive) in assay [8]; > 100 µM (inactive) in assay [10]; > 100 µM (inactive) in assay [11]; > 100 µM (inactive) in assay [13]; > 100 µM (inactive) in assay [14]. The GI50 in assay [15], in [16], in assay [20] and in [17] was > 100 µM (inactive) each time.

As for `CCOC(=O)/C(C#N)=C(/NNc1ccccc1)c1ccncc1C(=O)O`, the GI50 in assay [1] was > 100 µM (inactive); in assay [2], > 73.1 µM (inactive); in assay [3] it was > 100 µM (inactive); in assay [18], 2.75 µM (inactive); in [4], > 63.5 µM (inactive); in assay [19] it was 2.81 µM (inactive). Also, the GI50 in assay [5] is > 64.9 µM (inactive); in assay [6] it was > 100 µM (inactive); in assay [7], 5.68 µM (inactive); in assay [8] it was 5.09 µM (inactive); in [9], > 100 µM (inactive); in assay [10] it was > 100 µM (inactive). For the same molecule, the GI50 in assay [12] was > 100 µM (inactive); in assay [13] it was > 72.1 µM (inactive); in assay [14], > 39.1 µM (inactive); in assay [15], > 100 µM (inactive); in assay [16] it was 8.17 µM (inactive); in assay [20], > 100 µM (inactive). The GI50 in [17] was 4.49 µM (inactive).
